Consider five compounds from patent EP0238178B1, “Novel derivatives of erythromycylamine” (ELI LILLY AND COMPANY, priority 1986, dated 1987).

The subject of test [1] is Staphylococcus aureus X1.1. Description: MIC, standard agar-dilution assay. The conditions noted are these: read-out: MIC. It counts as cell-based.
Test [2] has as its system Staphylococcus aureus V41. The experiment in a line: MIC, standard agar-dilution assay. It counts as cell-based. The conditions noted are these: Staphylococcus aureus V41, Penicillin-resistant strain, inducibly-resistant to erythromycin; read-out: MIC. The source says: (§1) In addition to excellent in vitro activity against erythromycin-sensitive bacteria, several members of this new series have shown in vitro activity against erythromycin-resistant strains. These include strains which are inducibly-resistant to erythromycin (S.. aureus V41 and X400 and S. epidermidis EPI1) and even strains which are constitutively-resistant (S. epidermidis 270).

The test system of test [3] is Staphylococcus aureus X400. Description: MIC, standard agar-dilution assay. Type of test: cell-based. The conditions noted are these: Staphylococcus aureus X400, Methicillin-resistant strain, inducibly-resistant to erythromycin; read-out: MIC.
From the text: as §1

Test [4] deals with Staphylococcus epidermidis 270. The experiment in a line: MIC, standard agar-dilution assay. It counts as cell-based. The conditions noted are these: Staphylococcus epidermidis 270, constitutively-resistant to erythromycin.
From the text: as §1

The subject of test [5] is Staphylococcus aureus S13E. The experiment in a line: MIC, standard agar-dilution assay. Type of test: cell-based.
Test [6] has as its system Staphylococcus epidermidis 222. Description: MIC, standard agar-dilution assay. Type of test: cell-based. The conditions noted are these: read-out: MIC.
For test [7], the system named is Streptococcus pyogenes C203. The experiment in a line: MIC, standard agar-dilution assay. Type of test: cell-based. The conditions noted are these: read-out: MIC.
For test [8], the system named is Streptococcus pneumoniae Park I. The experiment in a line: MIC, standard agar-dilution assay. As to conditions: read-out: MIC. Type of test: cell-based.
The subject of test [9] is Streptococcus sp. group D X66. Description: MIC, standard agar-dilution assay. Type of test: cell-based. The conditions noted are these: Streptococcus sp. group D X66; read-out: MIC.
Test [10] relates to Streptococcus sp. group D 2041. Description: MIC, standard agar-dilution assay. Type of test: cell-based. The conditions noted are these: read-out: MIC.
In test [11] the test system is Haemophilus influenzae C.L. Description: MIC, standard agar-dilution assay. It counts as cell-based. As to conditions: Ampicillin-sensitive strain, read-out: MIC.
In another test the test system is Escherichia coli EC14. Description: MIC, standard agar-dilution assay. The conditions noted are these: read-out: MIC. It counts as cell-based.
For another test, the system named is Staphylococcus aureus. Description: Experimental bacterial infection in mice, ED50. Type of test: in vivo. As to conditions: Staphylococcus aureus, po, two doses, dose protecting 50% of animals, read-out: Oral ED50. As to the method: (§2) The new derivatives of this invention have also shown in vivo antimicrobial activity against experimental bacterial infections. When two doses of test compound were administered to mice in experimental infections, the activity observed was measured as an EDso value [effective dose in mg/kg to protect 50% of the test animals: see Warren Wick, et al., J. Bacteriol. 81, 233-235 (1961)].

The next test has as its system Streptococcus pneumoniae. The experiment in a line: Experimental bacterial infection in mice, ED50. It counts as in vivo. The conditions noted are these: Streptococcus pneumoniae, po, two doses, dose protecting 50% of animals, read-out: Oral ED50. As to the method: as §2
The subject of the next test is Streptococcus pyogenes. Description: Experimental bacterial infection in mice, ED50. It counts as in vivo. The conditions noted are these: Streptococcus pyogenes, po, two doses, dose protecting 50% of animals, read-out: Oral ED50. As to the method:
as §2

For test [12], the system named is Staphylococcus epidermidis EPI1. The experiment in a line: MIC, standard agar-dilution assay. It counts as cell-based.
From the text: as §1

Test [13] has as its system Haemophilus influenzae 76. Description: MIC, standard agar-dilution assay. Type of test: cell-based. The conditions noted are these: Haemophilus influenzae 76, Ampicillin-resistant strain; read-out: MIC.
Test [14] concerns Klebsiella pneumoniae X68. The experiment in a line: MIC, standard agar-dilution assay. It counts as cell-based. As to conditions: read-out: MIC.

≈ marks a conversion by molar mass, not a printed value.

As for `CCCCC/C=C\CCCN[C@@H]1[C@H](C)[C@@H](O)[C@](C)(O)[C@@H](CC)OC(=O)[C@H](C)[C@@H](O[C@H]2C[C@@](C)(OC)[C@@H](O)[C@H](C)O2)[C@H](C)[C@@H](O[C@@H]2O[C@H](C)C[C@H](N(C)C)[C@H]2O)[C@](C)(O)C[C@H]1C` [Compound 13], the MIC in test [1] was 0.25 µg/mL (≈ 0.286 µM); in [2], 8 µg/mL (≈ 9.16 µM); in test [3] it was 8 µg/mL (≈ 9.16 µM); in test [4] it was 32 µg/mL (≈ 36.6 µM); in [5] it was 0.25 µg/mL (≈ 0.286 µM); in test [6], 0.125 µg/mL (≈ 0.143 µM). Moreover, the MIC was less than 0.008 µg/mL in [7]; less than 0.008 µg/mL in [8]; 0.06 µg/mL (≈ 0.0687 µM) in test [9]; 1 µg/mL (≈ 1.15 µM) in test [10]; 2 µg/mL (≈ 2.29 µM) in test [11]; 128 µg/mL (≈ 147 µM) with Escherichia coli EC14.
With `CCCCC/C=C/CCCN[C@@H]1[C@H](C)[C@@H](O)[C@](C)(O)[C@@H](CC)OC(=O)[C@H](C)[C@@H](O[C@H]2C[C@@](C)(OC)[C@@H](O)[C@H](C)O2)[C@H](C)[C@@H](O[C@@H]2O[C@H](C)C[C@H](N(C)C)[C@H]2O)[C@](C)(O)C[C@H]1C` [Compound 14, 9-Deoxo-9-[(trans-dec-4-enyl)amino]erythromycin], the MIC in test [1] is 0.5 µg/mL (≈ 0.573 µM); in test [2], 8 µg/mL (≈ 9.16 µM); in test [3], 16 µg/mL (≈ 18.3 µM); in test [4], 32 µg/mL (≈ 36.6 µM); in test [5], 0.25 µg/mL (≈ 0.286 µM); in [6], 0.25 µg/mL (≈ 0.286 µM). Further, the MIC in [7] is less than 0.008 µg/mL; in [8], less than 0.008 µg/mL; in [9], 0.125 µg/mL (≈ 0.143 µM); in [10], 2 µg/mL (≈ 2.29 µM); in [11], 2 µg/mL (≈ 2.29 µM); with Escherichia coli EC14, 128 µg/mL (≈ 147 µM).
The term ED50 denotes the dose at which the effect has come halfway, by size or by number of responders. As for `CC[C@H]1OC(=O)[C@H](C)[C@@H](O[C@H]2C[C@@](C)(OC)[C@@H](O)[C@H](C)O2)[C@H](C)[C@@H](O[C@@H]2O[C@H](C)C[C@H](N(C)C)[C@H]2O)[C@](C)(O)C[C@@H](C)[C@H](NCC#Cc2ccccc2)[C@H](C)[C@@H](O)[C@]1(C)O` [Compound 18], the MIC is 1 µg/mL (≈ 1.18 µM) in test [1]; 16 µg/mL (≈ 18.8 µM) in [2]; 32 µg/mL (≈ 37.7 µM) in test [3]; 64 µg/mL (≈ 75.4 µM) in test [4]; 0.5 µg/mL (≈ 0.589 µM) in test [5]; 0.5 µg/mL (≈ 0.589 µM) in test [6]. The MIC was less than 0.008 µg/mL in [7]; less than 0.008 µg/mL in test [8]; 0.25 µg/mL (≈ 0.294 µM) in test [9]; 1 µg/mL (≈ 1.18 µM) in test [10]; 4 µg/mL (≈ 4.71 µM) in test [11]. Moreover, the ED50 is more than 50 mg/kg in the test with Staphylococcus aureus, 33.9 mg/kg in the test with Streptococcus pneumoniae and 26.7 mg/kg with Streptococcus pyogenes.
Turning to `CC[C@H]1OC(=O)[C@H](C)[C@@H](O[C@H]2C[C@@](C)(OC)[C@@H](O)[C@H](C)O2)[C@H](C)[C@@H](O[C@@H]2O[C@H](C)C[C@H](N(C)C)[C@H]2O)[C@](C)(O)C[C@@H](C)[C@H](N(C)C2CCCCC2)[C@H](C)[C@@H](O)[C@]1(C)O` [Compound 71, 9-Deoxo-9-[(N-cyclohexyl-N-methyl)amino]erythromycin], the MIC was 16 µg/mL (≈ 19.3 µM) in test [1]; more than 128 µg/mL in test [2]; more than 128 µg/mL in test [3]; more than 128 µg/mL in [12]; 16 µg/mL (≈ 19.3 µM) in test [5]; 8 µg/mL (≈ 9.63 µM) in test [6]. Further, the MIC in [7] worked out at 1 µg/mL (≈ 1.2 µM); in test [8] it was 0.125 µg/mL (≈ 0.15 µM); in test [9] it was 8 µg/mL (≈ 9.63 µM); in test [10], 128 µg/mL (≈ 154 µM); in [11] it was 32 µg/mL (≈ 38.5 µM); in test [13] it was 32 µg/mL (≈ 38.5 µM). Also, the MIC (with Escherichia coli EC14; in test [14]) was more than 128 µg/mL each time. The median effective dose (ED50) with Staphylococcus aureus, in the test with Streptococcus pneumoniae and in the test with Streptococcus pyogenes was more than 50 mg/kg in each case.
As to `CC[C@H]1OC(=O)[C@H](C)[C@@H](O[C@H]2C[C@@](C)(OC)[C@@H](O)[C@H](C)O2)[C@H](C)[C@@H](O[C@@H]2O[C@H](C)C[C@H](N(C)C)[C@H]2O)[C@](C)(O)C[C@@H](C)[C@H](N2CCCCC2)[C@H](C)[C@@H](O)[C@]1(C)O` [Compound 72, 9-Deoxo-9-(1-piperidinyl)erythromycin], the MIC in [1] is 16 µg/mL (≈ 19.9 µM); in test [2] it was more than 128 µg/mL; in test [3], more than 128 µg/mL; in [12] it was more than 128 µg/mL; in [5], 16 µg/mL (≈ 19.9 µM); in [6], 8 µg/mL (≈ 9.96 µM). In addition, the MIC in test [7] was found to be 1 µg/mL (≈ 1.25 µM); in test [8], 1 µg/mL (≈ 1.25 µM); in test [9], 4 µg/mL (≈ 4.98 µM); in test [10] it was 128 µg/mL (≈ 159 µM); in test [11] it was 2 µg/mL (≈ 2.49 µM); in [13], 64 µg/mL (≈ 79.7 µM). In addition, the MIC (with Escherichia coli EC14; in test [14]) was more than 128 µg/mL each time. Moreover, the ED50 with Staphylococcus aureus is more than 44 mg/kg; in the test with Streptococcus pneumoniae it was 20.6 mg/kg; in the test on Streptococcus pyogenes, 23.6 mg/kg.
